Laboratory results taken from PubChem BioAssay (NCI).
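The compound was tested at five concentrations on cells cultured in 96-well plates, with a 48-hour exposure period. Abbreviation: GI50, concentration required for 50% inhibition of growth. Definition used: TGI = concentration required for complete inhibition of growth.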

Assays:
Assay in all cases: NCI tumour cell line growth inhibition, 48 h
OVCAR-8 ovarian = tested on: OVCAR-8 ovarian
HOP-62 NSCLC = tested on: HOP-62 NSCLC
SK-OV-3 ovarian = tested on: SK-OV-3 ovarian
NCI-H226 lung = tested on: NCI-H226 lung
MCF7 breast = tested on: MCF7 breast
OVCAR-5 ovarian = tested on: OVCAR-5 ovarian
SF-295 CNS = tested on: SF-295 CNS
HCT-15 colon = tested on: HCT-15 colon
IGROV1 ovarian = tested on: IGROV1 ovarian
OVCAR-4 ovarian = tested on: OVCAR-4 ovarian

SMILES: Cc1ccc(C#CS(=O)(=O)C(F)(F)F)cc1
- TGI (OVCAR-8 ovarian): > 100 µM
- TGI (HOP-62 NSCLC): > 100 µM
- TGI (SK-OV-3 ovarian): > 100 µM
- TGI (NCI-H226 lung): > 100 µM
- TGI (MCF7 breast): > 100 µM
- TGI (OVCAR-5 ovarian): > 100 µM
- TGI (SF-295 CNS): > 31.6 µM
- TGI (HCT-15 colon): > 100 µM
- TGI (IGROV1 ovarian): > 100 µM
- TGI (OVCAR-4 ovarian): > 100 µM

SMILES: O=C(c1ccccc1O)c1cc(-c2ncc3c(=O)c4ccccc4oc3n2)c(-c2ccccc2O)[nH]c1=O
- TGI (OVCAR-8 ovarian): > 90.2 µM
- TGI (HOP-62 NSCLC): 52.6 µM
- TGI (SK-OV-3 ovarian): 85.2 µM
- TGI (NCI-H226 lung): 32.7 µM
- TGI (MCF7 breast): 34.2 µM
- TGI (OVCAR-5 ovarian): 62.8 µM
- TGI (SF-295 CNS): 22.7 µM
- TGI (HCT-15 colon): 71 µM
- TGI (IGROV1 ovarian): > 70.1 µM
- TGI (OVCAR-4 ovarian): 83.5 µM

SMILES: N#Cc1ccc(C2Oc3ccc(Cl)cc3C=C2[N+](=O)[O-])cc1 (configuration not stated)
- TGI (HOP-62 NSCLC): 3.8 µM
- TGI (SK-OV-3 ovarian): 5.57 µM
- TGI (NCI-H226 lung): 29.6 µM
- TGI (MCF7 breast): 3.14 µM
- TGI (OVCAR-5 ovarian): 3.98 µM
- TGI (SF-295 CNS): 9.15 µM
- TGI (HCT-15 colon): 4.12 µM
- TGI (IGROV1 ovarian): 3.11 µM
- TGI (OVCAR-4 ovarian): 3.45 µM

SMILES: COc1ccc([C@H]2c3cc4c(cc3OC(O)(CO)[C@H]2C(=O)O)OCO4)c(OC)c1 (some centres not stated) (tested in a mixture with another compound)
- TGI (OVCAR-8 ovarian): > 100 µM
- TGI (HOP-62 NSCLC): > 100 µM
- TGI (SK-OV-3 ovarian): > 100 µM
- TGI (NCI-H226 lung): > 100 µM
- TGI (OVCAR-5 ovarian): > 100 µM
- TGI (SF-295 CNS): > 100 µM
- TGI (HCT-15 colon): > 100 µM
- TGI (IGROV1 ovarian): > 100 µM
- TGI (OVCAR-4 ovarian): > 100 µM

SMILES: COc1cc(/C(=C2/O[C@@H]([C@H]3COC(C)(C)O3)[C@H]3OC(C)(C)O[C@@H]23)c2ccc3c(c2)OCO3)cc(OC)c1OC
- GI50 (OVCAR-8 ovarian): > 25 µM
- TGI (OVCAR-8 ovarian): > 25 µM
- GI50 (HOP-62 NSCLC): > 25 µM
- TGI (HOP-62 NSCLC): > 25 µM
- GI50 (SK-OV-3 ovarian): > 25 µM
- TGI (SK-OV-3 ovarian): > 25 µM
- GI50 (NCI-H226 lung): > 25 µM
- TGI (NCI-H226 lung): > 25 µM
- GI50 (MCF7 breast): > 25 µM
- TGI (MCF7 breast): > 25 µM
- GI50 (OVCAR-5 ovarian): 4.85 µM
- TGI (OVCAR-5 ovarian): > 25 µM
- GI50 (SF-295 CNS): > 25 µM
- TGI (SF-295 CNS): > 25 µM
- GI50 (HCT-15 colon): > 25 µM
- TGI (HCT-15 colon): > 25 µM
- GI50 (IGROV1 ovarian): > 25 µM
- TGI (IGROV1 ovarian): > 25 µM
- GI50 (OVCAR-4 ovarian): 8.81 µM
- TGI (OVCAR-4 ovarian): > 25 µM

SMILES: O=C1c2cc3c(cc2CC1Cc1ccc2c(c1)CCC2)CCC3 (configuration not stated)
- TGI (OVCAR-8 ovarian): > 100 µM
- TGI (HOP-62 NSCLC): > 100 µM
- TGI (SK-OV-3 ovarian): > 100 µM
- TGI (NCI-H226 lung): 65 µM
- TGI (MCF7 breast): > 100 µM
- TGI (OVCAR-5 ovarian): > 100 µM
- TGI (SF-295 CNS): > 100 µM
- TGI (HCT-15 colon): > 100 µM
- TGI (IGROV1 ovarian): > 100 µM
- TGI (OVCAR-4 ovarian): > 100 µM

SMILES: CCCCOc1ccc2c(c1)CC[C@@H]1[C@@H]2CC[C@]2(C)C(=O)N(CCCC)C(=O)C[C@@H]12
- TGI (OVCAR-8 ovarian): > 100 µM
- TGI (HOP-62 NSCLC): > 100 µM
- TGI (SK-OV-3 ovarian): > 100 µM
- TGI (NCI-H226 lung): > 100 µM
- TGI (MCF7 breast): > 100 µM
- TGI (OVCAR-5 ovarian): > 100 µM
- TGI (SF-295 CNS): > 100 µM
- TGI (HCT-15 colon): > 100 µM
- TGI (IGROV1 ovarian): > 100 µM
